Results from US6300311A, “Regulation of vertebrate ovarian maturation and function using growth factors” (Texas Tech University, priority 1998, dated 2001).
Values joined by “and” are separate entries in the source; they are usually repeats but may differ in a detail not shown here. Equal entries are not always repeated. “Also recorded” adds a separate entry of the source.

What was measured:
[1] = tested on: pig ZP proteins in isolated primordial follicles; test: Isolated pig primordial follicles cultured with EGF, ZP proteins by protein dot blot; type: cell-based; conditions: EGF 50 ng/ml, 6 days
Protocol: FIG. 16 graphically presents the results of studying the effect of EGP on ZP expression in isolated primordial follicles. As in the previous experiment, ovaries were collected from immature pigs at 3 to 5 weeks of age. In this case the ovaries were minced and the follicles enzymatically separated from the connective tissues and isolated. The population of small primordial follicles were collected and grown in cell culture well inserts. These were cultured for six days in medium alone as control or in medium supplemented with 50 nanograms per ml of EGF. After 6 days of culture the follicles were collected and proteins isolated and solubilized. The amount of total zona pellucida protein in these samples was determined using an antibody developed in guinea pigs against total zona pellucida proteins. The amount of porcine zona pellucida proteins in these samples were determined by dot blot analysis and quantified by optical density. The relative amount of zona pellucida protein is graphed in FIG. 16 for each sample (control and EGF treated 50 ng/ml). This was done for 3 replicates. […] This is consistent with the hypothesis that EGF can stimulate activation of dormant primordial follicles as indicated by the expression of zona pellucida genes.

[2] = tested on: FSH receptors; test: Expression of FSH receptors in granulosa cells from antral pig follicles; type: cell-based; conditions: EGF 50 ng/ml
[3] = tested on: mini-pigs; conditions: minipig, in vivo; cited from earlier work
[4] = tested on: neonatal mouse ovaries; conditions: neonatal mouse ovaries cultured in vitro; cited from earlier work
[5] = tested on: mature rats; conditions: intravenously infused for a four-week period; cited from earlier work
[6] = tested on: young female pigs; test: In vivo rec-pEGF by subcutaneous osmotic pumps, Group 2 pigs, body and organ weights at necropsy
[7] = tested on: pig ZP proteins; test: Pig ovarian explant culture with EGF, ZP proteins by protein dot blot; type: cell-based; conditions: EGF 50 ng/ml, 6 days
Protocol: For this first experiment ovaries were collected form pigs at three to five weeks of age at which the pig ovaries are very immature. The ovaries were then minced into small pieces and grown in ovarian explant cultures with or without EGF (similar to what we have done with the rabbit ovaries). After 6 days of culture the tissue was collected and in this case proteins from these samples were isolated and solubilized. The amount of total zona pellucida protein in these samples was determined using an antibody we developed in guinea pigs against total zona pellucida proteins. The amount of porcine zona pellucida proteins in these samples were determined by dot blot analysis and quantified by optical density. The relative amount of zona pellucida protein is graphed for each sample (control and EGF treated 50 ng/ml). This was done for 3 replicates.

[8] = tested on: granulosa cells from primary pig follicles; test: DNA synthesis in granulosa cells from primary pig follicles; type: cell-based; conditions: EGF 50 ng/ml
[9] = tested on: R55 mRNA; test: Rabbit ovary explant culture treated with EGF, R55 mRNA by Northern blot; type: cell-based; conditions: EGF 50 ng/ml
From the text: A method to culture pieces of ovaries from 14 d.pp. rabbits was developed, modeled after techniques used for ovaries from neonatal mice and bovine embryos. Tissue pieces (1-2 mm^3) from 14 d.pp. rabbit ovaries containing only primordial follicles were placed in cell culture inserts with 3.0 mm pores and cultured in 24-well plates with 300 microliters medium (50-50 blend of (a) F-12 Nutrient Mixture (Ham)(1×), liquid contains L-glutamine, and (b) Medium 199 (1×), liquid contains Earle's modified salts, 1.250 mg/L sodium bicarbonate, and L-glutamine.
Cultures were treated with mouse EGF (50 ng/ml) and analyzed for the level of expression of R55 mRNA. Treatment with EGF produced a 3-fold increase in amount of R55 mRNA (normalized to 28 S) as compared to controls incubated in medium alone (FIG. 3).
Ovaries were collected from 2 week old rabbits and the tissue mince into small pieces (-1 mm^3). These ovarian explants were then cultured for 6 days in the presence or absence of EGF (50 ng/ml). Total RNA was isolated and the relative amount of R55mRNA measured by Northern blot analysis. The result of 3 experiments were averaged and graphed. The level of P55 expression in the controls was defined as one. The level of expression of the epidermal growth factor treated samples was approximately 3 fold of that seen in the controls. […] This effect is due to an increase in the number of follicles being activated.

[10] = tested on: antiserum to recombinant porcine EGF; conditions: radioimmunoassay with antiserum to recombinant porcine EGF; cited from earlier work
[11] = tested on: young female pigs; conditions: pig, in vivo
[12] = tested on: young female pigs; test: In vivo rec-pEGF by subcutaneous osmotic pumps, Group 1 pigs, histological evaluation of ovarian follicles; design: species or system pig
Protocol: Finally, FIG. 23 is a graph which confirms that in vivo administration of rec-pEGF to the Group 1 pigs, above, starting at 30 d.pp. and administered for fourteen consecutive days at a 540 μg/day dose by placement of subcutaneous osmotic pumps in each pig. Ovaries from a sub-set of Group 1 pigs were examined at 70 d.pp. when the first cohort of growing follicles is normally expected to be present. […] Data was obtained by counting the number of hematoxylin/eosin stained follicles in a counting frame (960×1400 μm), and only sections through the center of a follicle with the germinal vesicle present were used for the evaluation. Growing follicles were identified based upon the presence of at least one cuboidal layer of granulosa cells surrounding the oocyte.

[13] = tested on: Swiss 3T3 fibroblast cells; test: 3T3 fibroblast proliferation assay ([H3]-thymidine incorporation); type: cell-based; conditions: quiescent Swiss 3T3 cells
Protocol: In FIG. 21, the bioactivity of EGF was tested in a 3T3 fibroblast proliferation assay. EGF was added to quiescent Swiss 3T3 fibroblast cells and stimulation of fibroblast proliferation was measured by [H^3 ]-thymidine incorporation as an indicator of DNA synthesis.

[14] = average of ten largest follicles, 540 μg/day for fourteen days

With “EGF: 53-residue polypeptide that is mitogenic for a variety of cell types both in vivo and in vitro” the “Optical density of ZP proteins from cultured primordial follicles” value ([1]; follicles of pigs 3 to 5 weeks of age, single replicates) was 1815 and 371 and 1697, the “expression of zona pellucida proteins in primordial follicles (in words)” value ([1]; versus medium alone) was “significant increase” and the “Optical density of ZP proteins from cultured primordial follicles, Avg. ZP” value ([1]; average of 3 replicates) was 1294. For the same substance, the “expression of FSH receptors in granulosa cells from antral pig follicles” value [2] was “stimulates”, the “organ growth in mini-pigs” value [3] was “stimulate growth of heart, liver, and urinary tract” and the “number of eggs recovered for in vitro maturation and fertilization” value [4] was “increased the number of eggs recovered”. The “number of corpora lutea (CL)” value [5] was “increase in the number of corpora lutea”, the ovarian weights [5] was “ovarian weights were increased” and the “Avg. Daily Gain” value ([6]; Group 2, N = 3) was 0.32 ± 0.06 kg/day. For the same substance, the “Day 14 Weight” value ([6]; Group 2, N = 3) was 4.6 ± 0.24 kg, the “Day 70 Weight” value ([6]; Group 2, N = 3) was 22.7 ± 3.40 kg and the “Optical density of ZP proteins from ovarian explant cultures” value ([7]; ovaries of pigs 3 to 5 weeks of age, single replicates) was 6355 and 6086 and 7193. For the same substance, the “increase in the amount of zona pellucida protein in EGF treated ovarian explants” value ([7]; versus control) was “approximately a two fold increase”, the “Optical density of ZP proteins from ovarian explant cultures, Avg. ZP” value ([7]; average of 3 replicates) was 6545 and the “DNA synthesis in granulosa cells from primary pig follicles” value [8] was “stimulates”. The “ratio of R55 to 28S optical densities from Northern blots” value ([9]; 6 days, ovarian explants of 2 week old rabbits, control = 1, single experiments) was 2.87 and 3.09 and 3.28, the “ratio of R55 to 28S optical densities from Northern blots, average” value ([9]; 6 days, average of 3 experiments, control = 1) was 3.08 and the “expression of R55 in primordial rabbit ovarian follicles (in words)” value ([9]; Northern blot) was “increased expression of R55; also recorded: significant increases in expression of R55”.

For “mouse EGF: EGF originally purified from the male mouse submaxillary gland; used in the rabbit ovary cultures (NSYPGCPSSYDGYCLNGGVCMHIESLDSYTCNCVIGYSGDRCQTRDLRWWELR; Epidermal growth factor; UniProt P01132 977-1029, looked up)”, the cross-reactivity [10] is given as under 1% and the “increase in amount of R55 mRNA as compared to controls” value ([9]; normalized to 28S, controls in medium alone) is given as 3 fold.

With “rec-pEGF: recombinant porcine EGF expressed in a bacterial system, with 6X histidine tag and 19 vector amino acids” the “effect on organ weights, body weights and general pathology” value [11] was “lack of effect”, the “greater population of growing follicles than in control or non-treated groups” value ([12]; 540 μg/day for fourteen days from 30 d.pp., necropsy fourteen days post-treatment) was 70% and the “size of ovarian follicles (in words)” value ([12]; 540 μg/day for fourteen days from 30 d.pp., versus control or non-treated groups) was “larger ovarian follicles”. The “number of ovarian follicles at 70 d.pp. (in words)” value ([12]; 540 μg/day for fourteen days from 30 d.pp., versus control group and group administered nothing) was “significantly increased”, the “follicle diameter greater than that of the control group” value [12, 14] was “over 100%” and the “follicle diameter greater than that of the group given nothing” value [12, 14] was “over 70%”. For the same substance, the “Stimulation of fibroblast proliferation” value [13] was “comparable to that of purified mouse EGF” and the “increase in size of the ovaries” value ([6]; 600 μg/day for fourteen days from 21 d.pp., tissues collected at 10 weeks, versus control and untreated group) was about 100%.
